Consider 14 compounds from patent publication US10709709B2, “Substituted carbonucleoside derivatives useful as anticancer agents” (Pfizer Inc., priority 2016, dated 2020).

The experiment deals with PRMT5/MEP50 protein complex (Homo sapiens (Human), UniProt O14744). Briefly: PRMT5 biochemical assay (3H-SAM methylation of H4(1-21) peptide, filter plate scintillation). To be noted: 10 nM PRMT5/MEP50 complex, 200 nM H4(1-21) peptide, 1 uM SAM, 25 minute incubation at room temperature. The procedure: Biochemical Assay Methods
PRMT5/MEP50 protein complex, sequence (O14744 other isoform, or with tags, fused parts or gaps): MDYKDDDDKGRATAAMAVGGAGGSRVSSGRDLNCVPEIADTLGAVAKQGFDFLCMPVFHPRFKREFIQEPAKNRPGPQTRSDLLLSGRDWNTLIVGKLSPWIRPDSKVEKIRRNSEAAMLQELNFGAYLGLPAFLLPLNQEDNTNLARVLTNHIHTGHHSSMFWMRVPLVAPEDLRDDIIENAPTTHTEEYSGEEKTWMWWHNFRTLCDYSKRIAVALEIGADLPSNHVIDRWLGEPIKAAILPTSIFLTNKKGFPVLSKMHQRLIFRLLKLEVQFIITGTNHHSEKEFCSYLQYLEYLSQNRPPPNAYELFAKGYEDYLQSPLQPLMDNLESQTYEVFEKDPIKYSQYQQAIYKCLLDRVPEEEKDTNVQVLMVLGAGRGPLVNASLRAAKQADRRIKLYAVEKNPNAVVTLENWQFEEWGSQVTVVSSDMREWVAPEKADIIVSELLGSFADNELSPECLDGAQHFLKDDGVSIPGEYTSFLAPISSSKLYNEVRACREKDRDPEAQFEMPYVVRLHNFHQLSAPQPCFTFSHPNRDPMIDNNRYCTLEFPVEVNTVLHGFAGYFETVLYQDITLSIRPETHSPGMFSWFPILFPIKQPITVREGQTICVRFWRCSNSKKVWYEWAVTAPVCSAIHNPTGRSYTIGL
PRMT5/MEP50 protein complex, sequence (Q9BQA1 whole entry partner): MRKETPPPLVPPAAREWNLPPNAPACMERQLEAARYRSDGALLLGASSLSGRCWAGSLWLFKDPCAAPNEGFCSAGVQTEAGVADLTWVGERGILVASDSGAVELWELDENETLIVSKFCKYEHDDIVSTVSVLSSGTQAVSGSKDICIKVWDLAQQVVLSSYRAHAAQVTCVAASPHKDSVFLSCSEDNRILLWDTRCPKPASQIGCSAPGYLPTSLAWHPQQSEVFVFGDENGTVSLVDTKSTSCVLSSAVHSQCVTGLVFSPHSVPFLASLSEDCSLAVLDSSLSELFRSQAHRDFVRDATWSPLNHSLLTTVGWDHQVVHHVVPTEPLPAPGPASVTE
Compounds were solubilized in DMSO and serially diluted, using 3-fold dilutions, into 100% DMSO at a concentration 50-fold greater than the desired assay concentration. Following dilution, 1 ul was added to an empty 96-well microtiter plate. PRMT5/MEP50 protein complex was combined with H4(1-21) peptide ([…]) in PRMT5 assay buffer (50 mM Tris pH 8.5, 50 mM NaCl, 5 mM MgCl2, 1 mM EDTA, 1 mM TCEP) and 44 ul was added to the microtiter plate containing compound. S-Adenosyl-L-methionine (SAM) was prepared by combining ^3H labelled SAM with unlabelled SAM in PRMT5 assay buffer such that the final SAM concentration was 10 uM and the specific activity was 0.2 uCi/ul. The reaction was initiated by adding 5 ul of SAM stock to the microtiter plate. The final reaction conditions were 10 nM PRMT5/MEP50 complex, 200 nM peptide and 1 uM SAM. Following a 25 minute incubation at room temperature, the reaction was stopped with the addition of 100 uL of 20% TCA. The 3H-peptide product was captured using a 96-well filter plate (MSIPN4B, Millipore) and washed 5 times with PBS buffer. Scintillation fluid (100 ul) was added to the dried filter plate and counted in a liquid scintillation counter. IC50 values were determined by fitting the data to the standard 4-parameter dose response equation using Pfizer proprietary software.
Results for the biochemical assay of examples are summarized in Table 1, shown as IC50 values in μM.
What is called IC50 is the concentration that inhibits the measured activity by half. Higher therefore signals weaker potency in that assay. In the case of `CO[C@H]1C[C@@H](n2ccc3c(C)ncnc32)[C@H](O)[C@@H]1O` (racemic) [Example 59, (+/−)-(1S,2S,3S,5R)-3-methoxy-5-(4-methyl-7H-pyrrolo[2,3-d]pyrimidin-7-yl)cyclopentane-1,2-diol], the IC50 was determined as 5.74 µM.
On to `Cc1ncnc2c1ccn2[C@@H]1C[C@H](C(F)c2ccc(F)cc2)[C@@H](O)[C@H]1O` (single isomer, unassigned) [Example 21], for which the IC50 stood at 0.217 µM.
The compound `N#Cc1cccc2c(N[C@@H]3C[C@H](C(O)c4ccc(F)c(F)c4)[C@@H](O)[C@H]3O)ncnc12` (single isomer, unassigned) [Example 29, 4-({(1R;2S;3R;4R)-4-[(3;4-difluorophenyl)(hydroxy)methyl]-2;3-dihydroxycyclopentyl}amino)quinazoline-8-carbonitrile] yielded an IC50 of over 200 µM.
With `N#Cc1cccc2c(N[C@@H]3C[C@H](C(O)c4ccc(F)c(F)c4)[C@@H](O)[C@H]3O)ncnc12` (single isomer, unassigned) [Example 30, 4-({(1R;2S;3R;4R)-4-[(3;4-difluorophenyl)(hydroxy)methyl]-2;3-dihydroxycyclopentyl}amino)quinazoline-8-carbonitrile] the figure was over 200 µM; with `Cc1ncnc2c1ccn2[C@@H]1C[C@H](Oc2cccc3c2CNC(C)C3)[C@@H](O)[C@H]1O` (single isomer, unassigned) [Example 185], 0.006 µM.
`Cc1ncnc2c1ccn2[C@@H]1C[C@H](Oc2cccc3c2C(N)CCC3)[C@@H](O)[C@H]1O` (single isomer, unassigned) [Example 187] yielded an IC50 of 0.971 µM.
Regarding `Cc1ncnc2c1ccn2[C@@H]1C[C@H](Oc2cccc3c2CC(N)CO3)[C@@H](O)[C@H]1O` (single isomer, unassigned) [Example 189], the IC50 is 0.604 µM.
Then `Cc1ncnc2c1ccn2[C@@H]1C[C@H]([C@@H](C)O)[C@@H](O)[C@H]1O` [Example 1, (1S,2R,3R,5R)-3-((R)-1-hydroxyethyl)-5-(4-methyl-7H-pyrrolo[2,3-d]pyrimidin-7-yl)cyclopentane-1,2-diol], with 0.51 µM.
Then `Cc1ncnc2c1ccn2[C@@H]1C[C@H]([C@H](C)O)[C@@H](O)[C@H]1O` [Example 2, (1S,2R,3R,5R)-3-((S)-1-hydroxyethyl)-5-(4-methyl-7H-pyrrolo[2,3-d]pyrimidin-7-yl)cyclopentane-1,2-diol], with 8.38 µM; and `Cc1ncnc2c1ccn2[C@@H]1C[C@H]([C@@H](O)c2ccc(F)c(F)c2)[C@@H](O)[C@H]1O` [Example 4, (1S,2R,5R)-3-[(R)-(3,4-difluorophenyl) (hydroxy)methyl]-5-(4-methyl-7H-pyrrolo[2,3-d]pyrimidin-7-yl)cyclopentane-1,2-diol], with 0.681 µM; and `Cc1ncnc2c1ccn2[C@@H]1C[C@H]([C@@H](O)c2ccc(F)c(Cl)c2)[C@@H](O)[C@H]1O` [Example 6, (1S,2R,3R,5R)-3-[(R)-(3-chloro-4-fluorophenyl) (hydroxy)methyl]-5-(4-methyl-7H-pyrrolo[2,3-d]pyrimidin-7-yl)cyclopentane-1,2-diol], with 0.423 µM.
`Cc1ncnc2c1ccn2[C@@H]1C[C@H]([C@H](O)c2cccc(Cl)c2)[C@@H](O)[C@H]1O` [Example 7] returned an IC50 of 0.12 µM.
`Cc1ncnc2c1ccn2[C@@H]1C[C@H]([C@@H](O)c2cccc(Cl)c2)[C@@H](O)[C@H]1O` [Example 8, (1S,2R,3R,5R)-3-[(R)-(3-chlorophenyl) (hydroxy)methyl]-5-(4-methyl-7H-pyrrolo[2,3-d]pyrimidin-7-yl)cyclopentane-1,2-diol] came in with an IC50 of 3.39 µM.
`Cc1ncnc2c1ccn2[C@@H]1C[C@H]([C@H](O)c2ccc(F)cc2)[C@@H](O)[C@H]1O` [Example 9, (1S,2R,3R,5R)-3-[(S)-(4-fluorophenyl) (hydroxy)methyl]-5-(4-methyl-7H-pyrrolo[2,3-d]pyrimidin-7-yl)cyclopentane-1,2-diol] had an IC50 of 0.06 µM.
